Laboratory results from patent US20150344457A1, “METHODS OF INHIBITING PRMT5” (EPIZYME, INC., priority 2012, published 2015).
Where two headings read alike, the source gives them in different places.

Key:
PRMT5/MEP50 = target: T1, PRMT5/MEP50 (Homo sapiens, UniProt O14744); test: PRMT5 Biochemical Assay (PRMT5/MEP50 enzyme assay on peptide substrate, 3H-SAM Flashplate); conditions: read-out: Biochemical IC50
T1 construct: Expressed full-length human Flag-PRMT5/6His-MeP50 protein complex was purified; made in house; host or cells: Spodoptera frugiperda (SF9) insect cells, baculovirus (pDEST8)
T1 sequence (O14744 with tags, fused parts or gaps): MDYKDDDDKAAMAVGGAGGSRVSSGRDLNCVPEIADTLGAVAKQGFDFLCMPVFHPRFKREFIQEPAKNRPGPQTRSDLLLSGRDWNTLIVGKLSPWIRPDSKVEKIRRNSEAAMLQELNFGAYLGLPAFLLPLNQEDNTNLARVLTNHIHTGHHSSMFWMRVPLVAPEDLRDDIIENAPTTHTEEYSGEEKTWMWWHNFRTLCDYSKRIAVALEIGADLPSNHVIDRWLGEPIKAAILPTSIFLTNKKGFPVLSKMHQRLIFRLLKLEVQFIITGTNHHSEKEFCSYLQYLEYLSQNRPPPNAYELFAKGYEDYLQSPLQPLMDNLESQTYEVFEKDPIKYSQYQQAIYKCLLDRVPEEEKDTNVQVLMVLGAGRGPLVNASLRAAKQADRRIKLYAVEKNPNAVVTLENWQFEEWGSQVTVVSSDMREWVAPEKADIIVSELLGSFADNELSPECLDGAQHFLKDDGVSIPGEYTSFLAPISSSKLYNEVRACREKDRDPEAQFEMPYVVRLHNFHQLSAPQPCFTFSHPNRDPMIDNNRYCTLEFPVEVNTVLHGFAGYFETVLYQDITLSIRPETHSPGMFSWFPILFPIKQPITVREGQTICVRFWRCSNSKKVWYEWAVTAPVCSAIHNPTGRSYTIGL
T1 sequence (Q9BQA1 with tags, fused parts or gaps partner limits assumed): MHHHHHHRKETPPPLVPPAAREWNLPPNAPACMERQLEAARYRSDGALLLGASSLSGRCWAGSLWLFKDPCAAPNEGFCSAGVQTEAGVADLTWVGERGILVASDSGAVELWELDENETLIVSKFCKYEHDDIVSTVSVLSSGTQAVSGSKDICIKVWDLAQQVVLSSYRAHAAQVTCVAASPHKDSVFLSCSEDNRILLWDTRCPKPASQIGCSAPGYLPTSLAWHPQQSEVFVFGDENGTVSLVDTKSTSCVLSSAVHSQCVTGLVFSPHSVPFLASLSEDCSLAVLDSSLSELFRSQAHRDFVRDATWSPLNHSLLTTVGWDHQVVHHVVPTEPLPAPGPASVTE

Z-138 cells [1] = test: Z-138 Methylation Assay (In Cell Western for symmetric di-methyl arginine and DNA content); type: cell-based; conditions: Homo sapiens
From the text: Z-138 suspension cells were purchased from ATCC (American Type Culture Collection, Manassas, Va.). RPMI/Glutamax medium, penicillin-streptomycin, heat inactivated fetal bovine serum, and D-PBS were purchased from Life Technologies, Grand Island, N.Y., USA. Odyssey blocking buffer, 800CW goat anti-rabbit IgG (H+L) antibody, and Licor Odyssey infrared scanner were purchased from Licor Biosciences, Lincoln, Nebr., USA. Symmetric di-methyl arginine antibody was purchased from EMD Millipore, Billerica, Mass., USA. 16% Paraformaldehyde was purchased from Electron Microscopy Sciences, Hatfield, Pa., USA.
Z-138 suspension cells were maintained in growth medium (RPMI 1640 supplemented with 10% v/v heat inactivated fetal bovine serum and 100 units/mL penicillin-streptomycin) and cultured at 37° C. under 5% CO2.
Cell Treatment, in Cell Western (ICW) for Detection of Symmetric Di-Methyl Arginine and DNA Content.
Z-138 cells were seeded in assay medium at a concentration of 50,000 cells per mL to a 384-well cell culture plate with 50 μL per well. Compound (100 nL) from 384 well source plates was added directly to 384 well cell plate. Plates were incubated at 37° C., 5% CO2 for 96 hours. After four days of incubation, 40 μL of cells from incubated plates were added to poly-D-lysine coated 384 well culture plates (BD Biosciences 356697). Plates were incubated at room temperature for 30 minutes then incubated at 37° C., 5% CO2 for 5 hours. After the incubation, 40 μL per well of 8% paraformaldehyde in PBS (16% paraformaldahyde was diluted to 8% in PBS) was added to each plate and incubated for 30 minutes. Plates were transferred to a Biotek 405 plate washer and washed 5 times with 100 μL per well of wash buffer (1×PBS with 0.1% Triton X-100 (v/v)). Next 30 μL per well of Odyssey blocking buffer were added to each plate and incubated 1 hour at room temperature. Blocking buffer was removed and 20 μL per well of primary antibody was added (symmetric di-methyl arginine diluted 1:100 in Odyssey buffer with 0.1% Tween 20 (v/v)) and plates were incubated overnight (16 hours) at 4° C. Plates were washed 5 times with 100 μL per well of wash buffer. Next 20 μL per well of secondary antibody was added (1:200 800CW goat anti-rabbit IgG (H+L) antibody, 1:1000 DRAQS (Biostatus limited) in Odyssey buffer with 0.1% Tween 20 (v/v)) and incubated for 1 hour at room temperature. The plates were washed 5 times with 100 μL per well wash buffer then 1 time with 100 μL per well of water. Plates were allowed to dry at room temperature then imaged on the Licor Odyssey machine which measures integrated intensity at 700 nm and 800 nm wavelengths. Both 700 and 800 channels were scanned.
First, the ratio for each well was determined by:
Each plate included fourteen control wells of DMSO only treatment (minimum inhibition) as well as fourteen control wells for maximum inhibition treated with 3 μM of a reference compound (Background wells). The average of the ratio values for each control type was calculated and used to determine the percent inhibition for each test well in the plate. Reference compound was serially diluted three-fold in DMSO for a total of nine test concentrations, beginning at 3 μM. Percent inhibition was determined and IC50 curves were generated using triplicate wells per concentration of compound.

Z-138 cells [2] = test: Z-138 Proliferation Assay (Cell Titer Glo, 5 days); type: cell-based; conditions: Homo sapiens
From the text: Z-138 Proliferation Assay
Z-138 suspension cells were purchased from ATCC (American Type Culture Collection, Manassas, Va.). RPMI/Glutamax medium, penicillin-streptomycin, heat inactivated fetal bovine serum were purchased from Life Technologies, Grand Island, N.Y., USA. V-bottom polypropylene 384-well plates were purchased from Greiner Bio-One, Monroe, N.C., USA. Cell culture 384-well white opaque plates were purchased from Perkin Elmer, Waltham, Mass., USA. Cell-Titer Gb® was purchased from Promega Corporation, Madison, Wis., USA. SpectraMax M5 plate reader was purchased from Molecular Devices LLC, Sunnyvale, Calif., USA.
Z-138 suspension cells were maintained in growth medium (RPMI 1640 supplemented with 10% v/v heat inactivated fetal bovine serum and cultured at 37° C. under 5% CO2. Under assay conditions, cells were incubated in assay medium (RPMI 1640 supplemented with 10% v/v heat inactivated fetal bovine serum and 100 units/mL penicillin-streptomycin) at 37° C. under 5% CO2.
For the assessment of the effect of compounds on the proliferation of the Z-138 cell line, exponentially growing cells were plated in 384-well white opaque plates at a density of 10,000 cells/ml in a final volume of 50 μl of assay medium. A compound source plate was prepared by performing triplicate nine-point 3-fold serial dilutions in DMSO, beginning at 10 mM (final top concentration of compound in the assay was 20 μM and the DMSO was 0.2%). A 100 nL aliquot from the compound stock plate was added to its respective well in the cell plate. […] After addition of compounds, assay plates were incubated for 5 days at 37° C., 5% CO2, relative humidity >90%.
Cell viability was measured by quantitation of ATP present in the cell cultures, adding 35 μl of Cell Titer Glo® reagent to the cell plates. Luminescence was read in the SpectraMax M5 microplate reader. The concentration of compound inhibiting cell viability by 50% was determined using a 4-parametric fit of the normalized dose response curves.

[3] = Table A-2, PRMT5/MEP50 4 nM, 3H-SAM 75 nM, peptide 40 nM
[4] = Table A-2, 96 hours, symmetric di-methyl arginine, read-out: ICW EC50

In the case of `O=C(COc1ccccc1)NCC(O)CN1CCc2ccccc2C1` (stereo not drawn) [Compound A1], the IC50 (PRMT5/MEP50; [3]) is reported as 101 to 1000 nM and the EC50 (Z-138 cells [1]; [4]) is reported as 101 to 1000 nM.
`Cn1cnc2ccc(OCC(=O)NCC(O)CN3CCc4ccccc4C3)cc21` (stereo not drawn) [Compound A30] showed an EC50 (Z-138 cells [2]; 120 h, Table A-2, 5 days, top concentration 20 μM) of 10000 to 50000 nM and an EC50 (Z-138 cells [1]; [4]) of 101 to 1000 nM.
With `Cn1nccc1-c1cccc(CC(=O)NCC(O)CN2CCc3ccccc3C2)c1` (stereo not drawn) [Compound A54] the IC50 (PRMT5/MEP50; [3]) was 101 to 1000 nM and the EC50 (Z-138 cells [1]; [4]) was 101 to 1000 nM.
Work on `O=C(Cc1cccc2cccnc12)NCC(O)CN1CCc2ccccc2C1` (stereo not drawn) [Compound A60] yielded an IC50 (PRMT5/MEP50; [3]) of 101 to 1000 nM and an EC50 (Z-138 cells [1]; [4]) of 1000 to 10000 nM.
With `Cn1cnc2ccc(NCC(=O)NCC(O)CN3CCc4ccccc4C3)cc21` (stereo not drawn) [Compound A69] the IC50 (PRMT5/MEP50; [3]) was 101 to 1000 nM and the EC50 (Z-138 cells [1]; [4]) was 1000 to 10000 nM.
In the case of `O=C(COc1ccccc1N1CCOCC1)NC[C@@H](O)CN1CCc2ccccc2C1` [Compound A78], the IC50 (PRMT5/MEP50; [3]) is reported as 101 to 1000 nM and the EC50 (Z-138 cells [1]; [4]) is reported as 101 to 1000 nM.
For `CN1CCN(c2ccccc2OCC(=O)NC[C@@H](O)CN2CCc3ccccc3C2)CC1` [Compound A85], the IC50 (PRMT5/MEP50; [3]) was 1000 to 10000 nM and the EC50 (Z-138 cells [1]; [4]) was 1000 to 10000 nM.
`CN(C)CCOc1ccccc1OCC(=O)NC[C@@H](O)CN1CCc2ccccc2C1` [Compound A89] was tested, and the IC50 (PRMT5/MEP50; [3]) was 101 to 1000 nM and the EC50 (Z-138 cells [1]; [4]) was 1000 to 10000 nM.
`Cn1ccnc1-c1ccccc1OCC(=O)NCC(O)CN1CCc2ccccc2C1` (stereo not drawn) [Compound A138] showed an IC50 (PRMT5/MEP50; [3]) of 101 to 1000 nM and an EC50 (Z-138 cells [1]; [4]) of 1000 to 10000 nM.
Work on `Cc1cn(C)c2cccc(OCC(=O)NCC(O)CN3CCc4ccccc4C3)c12` (stereo not drawn) [Compound A146] yielded an IC50 (PRMT5/MEP50; [3]) of less than 100 nM and an EC50 (Z-138 cells [1]; [4]) of 101 to 1000 nM.
`O=C(COc1ccccc1S(=O)(=O)N1CCOCC1)NCC(O)CN1CCc2ccccc2C1` (stereo not drawn) [Compound A149] gave an IC50 (PRMT5/MEP50; [3]) of less than 100 nM and an EC50 (Z-138 cells [1]; [4]) of 101 to 1000 nM.
`COc1cc(Cl)cc(-c2cccc(OCC(O)CN3CCc4ccccc4C3)c2)c1` (stereo not drawn) [Compound D110] was tested, and the IC50 (PRMT5/MEP50; Table D-2) was 101 to 1000 nM and the EC50 (Z-138 cells [1]; Table D-2, read-out: ICW EC50) was greater than 20000 nM.
Compound `N#CCc1cccc(-c2cccc(OCC(O)CN3CCc4ccccc4C3)c2)c1` (stereo not drawn) [Compound D111] has an IC50 (PRMT5/MEP50; Table D-2) of 101 to 1000 nM and an EC50 (Z-138 cells [1]; Table D-2, read-out: ICW EC50) of 1000 to 10000 nM.
`Cn1cc2ccc(-c3cccc(OCC(O)CN4CCc5ccccc5C4)c3)cc2n1` (stereo not drawn) [Compound D114] was tested, and the IC50 (PRMT5/MEP50; Table D-2) was 101 to 1000 nM and the EC50 (Z-138 cells [1]; Table D-2, read-out: ICW EC50) was greater than 20000 nM.
`OC(COc1cccc(-c2ccccc2F)c1)CN1CCc2ccccc2C1` (stereo not drawn) [Compound D154] was tested, and the IC50 (PRMT5/MEP50; Table D-2) was 101 to 1000 nM and the EC50 (Z-138 cells [1]; Table D-2, read-out: ICW EC50) was 1000 to 10000 nM.
In the case of `O=C(Nc1cccc(OCC(O)CN2CCc3ccccc3C2)c1)c1cccnn1` (stereo not drawn) [Compound D164], the IC50 (PRMT5/MEP50; Table D-2) is reported as 1000 to 10000 nM and the EC50 (Z-138 cells [1]; Table D-2, read-out: ICW EC50) is reported as 1000 to 10000 nM.
In the case of `Cn1cnc2ccc(-c3cccc(OC[C@@H](O)CN4CCc5ccccc5C4)c3)cc21` [Compound D173], the EC50 (Z-138 cells [2]; Table D-2) is reported as 1000 to 10000 nM and the EC50 (Z-138 cells [1]; Table D-2, read-out: ICW EC50) is reported as 1000 to 10000 nM.
In the case of `O[C@H](COc1cccc(-c2cccc3cccnc23)c1)CN1CCc2ccccc2C1` [Compound D258], the EC50 (Z-138 cells [2]; Table D-2) is reported as greater than 20000 nM and the EC50 (Z-138 cells [1]; Table D-2, read-out: ICW EC50) is reported as 1000 to 10000 nM.
For `Cn1cncc1C(=O)Nc1cccc(OC[C@H](O)CN2CCc3ccccc3C2)c1` [Compound D259], the EC50 (Z-138 cells [2]; Table D-2) was 10000 to 40000 nM and the EC50 (Z-138 cells [1]; Table D-2, read-out: ICW EC50) was 101 to 1000 nM.
In the case of `Cn1cnc2ccc(-c3ccnc(NC[C@@H](O)CN4CCc5ccccc5C4)c3)cc21` [Compound D276], the EC50 (Z-138 cells [2]; Table D-2) is reported as 1000 to 10000 nM and the EC50 (Z-138 cells [1]; Table D-2, read-out: ICW EC50) is reported as 1000 to 10000 nM.
`O=C(NCC(O)CN1Cc2ccccc2C1)c1cccc(NC2CCOCC2)c1` (stereo not drawn) [Compound E8.] gave an IC50 (PRMT5/MEP50; Table E-2) of 101 to 1000 nM and an EC50 (Z-138 cells [1]; Table E-2, read-out: ICW EC50) of 101 to 1000 nM.
